From patent US20220177428A1, “SPECIFICALLY SUBSTITUTED 3-(2-ALKOXY-6-ALKYL-4-PROPINYLPHENYL)-3-PYRROLIN-2-ONES AND THEIR USE AS HERBICIDES” (Bayer Aktiengesellschaft, priority 2019, published 2022) come the findings set out here.

What all share (format): in vivo
Assay [1] relates to Echinochloa crus-galli. In words: Post-emergence herbicidal effect. To be noted: 80 g ai/ha, visual score after about 3 weeks. On the procedure: (§1) [table] Seeds of monocotyledonous and dicotyledonous weed and crop plants are laid out in sandy loam soil in wood-fibre pots, covered with soil and cultivated in a greenhouse under good growth conditions. 2 to 3 weeks after sowing, the test plants are treated at the one-leaf stage. The compounds of the invention, formulated in the form of wettable powders (WP) or as emulsion concentrates (EC), are then sprayed onto the green parts of the plants as aqueous suspension or emulsion at a water application rate equating to 600 to 800 L/ha with addition of 0.2% wetting agent. After the test plants have been left to stand in the greenhouse under optimal growth conditions for about 3 weeks, the action of the preparations is assessed visually in comparison to untreated controls (herbicidal action in percent (%): 100% activity=the plants have died, 0% activity=like control plants).

Assay [2] deals with Alopecurus myosuroides. Put plainly: Post-emergence herbicidal effect. The settings on record: 80 g ai/ha, visual score after about 3 weeks. On the procedure:
as §1

In assay [3] the test system is Digitaria sanguinalis. Put plainly: Post-emergence herbicidal effect. The settings on record: 80 g ai/ha, visual score after about 3 weeks. On the procedure:
as §1

The subject of assay [4] is Lolium rigidum. In words: Post-emergence herbicidal effect. The settings on record: 80 g ai/ha, visual score after about 3 weeks. On the procedure:
as §1

Assay [5] concerns Setaria viridis. Put plainly: Post-emergence herbicidal effect. To be noted: 80 g ai/ha, visual score after about 3 weeks. On the procedure:
as §1

For assay [6], the system named is Avena fatua. In words: Post-emergence herbicidal effect. To be noted: 80 g ai/ha, visual score after about 3 weeks. On the procedure:
as §1

In a further assay the test system is Hordeum murinum. In words: Post-emergence herbicidal effect. To be noted: 80 g ai/ha, visual score after about 3 weeks. On the procedure:
as §1

Assay [7] has as its system Echinochloa crus-galli. In words: Pre-emergence herbicidal effect. To be noted: 80 g ai/ha, visual score after 3 weeks. From the text:
(§2) Seeds of monocotyledonous and dicotyledonous weed plants and crop plants are laid out in sandy loam soil in wood-fibre pots and covered with soil. The compounds of the invention, formulated in the form of wettable powders (WP) or as emulsion concentrates (EC), are then applied to the surface of the covering soil as aqueous suspension or emulsion at a water application rate equating to 600 to 800 L/ha with addition of 0.2% wetting agent. After the treatment, the pots are placed in a greenhouse and kept under good growth conditions for the trial plants. The damage to the test plants is scored visually after a test period of 3 weeks by comparison with untreated controls (herbicidal activity in percent (%): 100% activity=the plants have died, 0% activity=like control plants). [table]

The test system of the next assay is Viola tricolor. Put plainly: Pre-emergence herbicidal effect. To be noted: 80 g ai/ha, visual score after 3 weeks.
Excerpt: as §2

The subject of assay [8] is Alopecurus myosuroides. In words: Pre-emergence herbicidal effect. The settings on record: 80 g ai/ha, visual score after 3 weeks.
Excerpt: as §2

Assay [9] concerns Digitaria sanguinalis. Put plainly: Pre-emergence herbicidal effect. To be noted: 80 g ai/ha, visual score after 3 weeks.
Excerpt: as §2

The test system of assay [10] is Lolium rigidum. In words: Pre-emergence herbicidal effect. The settings on record: 80 g ai/ha, visual score after 3 weeks.
Excerpt: as §2

The subject of assay [11] is Setaria viridis. Put plainly: Pre-emergence herbicidal effect. The settings on record: 80 g ai/ha, visual score after 3 weeks.
Excerpt: as §2

Assay [12] has as its system Avena fatua. Put plainly: Pre-emergence herbicidal effect. To be noted: 80 g ai/ha, visual score after 3 weeks.
Excerpt: as §2

With `CC#Cc1cc(C)c(C2=C(OC(=O)OCC)C3(CCCC(OCCC)C3)NC2=O)c(OC)c1` (stereo not drawn) [Example P3], the “Post-emergence activity ECHCG” value in the assay on Echinochloa crus-galli [1] amounted to 100%. In the assay on Alopecurus myosuroides [2], the “Post-emergence activity ALOMY” value is 100%. Further, the “Post-emergence activity DIGSA” value in the assay on Digitaria sanguinalis [3] was 100%. Besides, the “Post-emergence activity LOLRI” value in the assay with Lolium rigidum [4] was found to be 100%. Also, the “Post-emergence activity SETVI” value in the assay with Setaria viridis [5] stood at 100%. For the same molecule, the “Post-emergence activity AVEFA” value with Avena fatua [6] stood at 100%. The “Post-emergence activity HORMU” value in the assay with Hordeum murinum is 100%.
For `C=CCOC1CCC2(CC1)NC(=O)C(c1c(C)cc(C#CC)cc1OC)=C2O` (stereo not drawn) [Example D5], the “Post-emergence activity ECHCG” value in the assay on Echinochloa crus-galli [1] turned out to be 100%. Also, the “Post-emergence activity ALOMY” value in the assay with Alopecurus myosuroides [2] is 100%. For the same molecule, in the assay on Digitaria sanguinalis [3], the “Post-emergence activity DIGSA” value is recorded as 100%. Besides, the “Post-emergence activity LOLRI” value in the assay with Lolium rigidum [4] worked out at 100%. In addition, the “Post-emergence activity SETVI” value with Setaria viridis [5] is recorded as 100%. For the same molecule, the “Post-emergence activity AVEFA” value with Avena fatua [6] was determined as 100%. Also, the “Post-emergence activity HORMU” value in the assay on Hordeum murinum was determined as 100%.
Consider `CC#Cc1cc(C)c(C2=C(O)C3(CCC(OC(C)C)CC3)NC2=O)c(OC)c1` (stereo not drawn) [Example D3], for which, in the assay on Echinochloa crus-galli [7], the “Pre-emergence activity ECHCG” value was 100%. Also, in the assay on Viola tricolor, the “Pre-emergence activity VIOTR” value is recorded as 100%. Further, the “Pre-emergence activity ALOMY” value with Alopecurus myosuroides [8] amounted to 100%. Moreover, the “Pre-emergence activity DIGSA” value with Digitaria sanguinalis [9] is 100%. Further, in the assay on Lolium rigidum [10], the “Pre-emergence activity LOLRI” value amounted to 100%. In addition, the “Pre-emergence activity SETVI” value in the assay on Setaria viridis [11] is listed as 100%. For the same molecule, the “Pre-emergence activity AVEFA” value with Avena fatua [12] is given as 80%. Moreover, in the assay on Echinochloa crus-galli [1], the “Post-emergence activity ECHCG” value is recorded as 100%. The “Post-emergence activity ALOMY” value in the assay with Alopecurus myosuroides [2] stood at 100%. The “Post-emergence activity DIGSA” value with Digitaria sanguinalis [3] is listed as 100%. Besides, the “Post-emergence activity LOLRI” value in the assay on Lolium rigidum [4] is on record as 100%. Moreover, the “Post-emergence activity SETVI” value in the assay on Setaria viridis [5] was determined as 100%. Moreover, in the assay with Avena fatua [6], the “Post-emergence activity AVEFA” value stood at 100%. For the same molecule, in the assay on Hordeum murinum, the “Post-emergence activity HORMU” value is 80%.
In the case of `C=CCOC1CCC2(CC1)NC(=O)C(c1c(C)cc(C#CC)cc1OC)=C2OC(=O)C(C)C` (stereo not drawn) [Example Q5], in the assay with Echinochloa crus-galli [1], the “Post-emergence activity ECHCG” value stood at 100%. Moreover, the “Post-emergence activity ALOMY” value with Alopecurus myosuroides [2] amounted to 100%. Further, the “Post-emergence activity DIGSA” value with Digitaria sanguinalis [3] is given as 100%. The “Post-emergence activity LOLRI” value with Lolium rigidum [4] is given as 100%. In addition, in the assay on Setaria viridis [5], the “Post-emergence activity SETVI” value was 100%. For the same molecule, in the assay with Hordeum murinum, the “Post-emergence activity HORMU” value turned out to be 90%.
For `CC#Cc1cc(C)c(C2=C(OC(=O)CC)C3(CCCC(OCCC)C3)NC2=O)c(OC)c1` (stereo not drawn) [Example P5], the “Post-emergence activity ECHCG” value in the assay on Echinochloa crus-galli [1] amounted to 100%. Also, in the assay with Alopecurus myosuroides [2], the “Post-emergence activity ALOMY” value is reported as 100%. Besides, the “Post-emergence activity DIGSA” value in the assay on Digitaria sanguinalis [3] is listed as 100%. Moreover, in the assay on Lolium rigidum [4], the “Post-emergence activity LOLRI” value was found to be 100%. Besides, the “Post-emergence activity SETVI” value in the assay on Setaria viridis [5] is 100%. The “Post-emergence activity AVEFA” value in the assay on Avena fatua [6] is given as 100%. The “Post-emergence activity HORMU” value in the assay on Hordeum murinum is on record as 100%.
For the molecule `CC#Cc1cc(C)c(C2=C(OC(=O)OC)C3(CCCC(OCCC)C3)NC2=O)c(OC)c1` (stereo not drawn) [Example P2], in the assay on Echinochloa crus-galli [1], the “Post-emergence activity ECHCG” value is recorded as 100%. In the assay with Alopecurus myosuroides [2], the “Post-emergence activity ALOMY” value was determined as 100%. In addition, in the assay on Digitaria sanguinalis [3], the “Post-emergence activity DIGSA” value was determined as 100%. Further, the “Post-emergence activity LOLRI” value with Lolium rigidum [4] amounted to 100%. In addition, in the assay on Setaria viridis [5], the “Post-emergence activity SETVI” value is recorded as 100%. In addition, in the assay on Avena fatua [6], the “Post-emergence activity AVEFA” value is recorded as 100%. For the same molecule, in the assay with Hordeum murinum, the “Post-emergence activity HORMU” value was determined as 100%.
